According to ChEMBL document CHEMBL1143131, “Synthesis and anti-HIV activity of GS-9148 (2'-Fd4AP), a novel nucleoside phosphonate HIV reverse transcriptase inhibitor” (Bioorg Med Chem Lett, 2008):

Columns and labels:
[1] = tested on: Human immunodeficiency virus; assay: Antiviral activity against HIV with reverse transcriptase 6TAMs mutation assessed as fold resistance relative to wild type; format: functional
[2] = tested on: Human immunodeficiency virus; assay: Antiviral activity against HIV with reverse transcriptase M184V mutation assessed as fold resistance relative to wild type; format: functional
[3] = tested on: Human immunodeficiency virus 1; assay: Antiviral activity against wild type HIV1 3B in MT2 cells; format: functional, organism-based; details: Human immunodeficiency virus 1, 3B
[4] = Cytotoxicity against human MT2 cells; format: cell-based
[5] = tested on: Human immunodeficiency virus; assay: Antiviral activity against HIV with reverse transcriptase K65R mutation assessed as fold resistance relative to wild type; format: functional
[6] = target: Human immunodeficiency virus type 1 reverse transcriptase (Human immunodeficiency virus 1, UniProt Q72547); assay: Inhibition of wild type HIV 3B reverse transcriptase

SMILES	Activity [1]	Activity [2]	EC50 [3] [µM]	CC50 [4] [µM]	Activity [5]	IC50 [6] [µM]
Cc1cn([C@H]2C[C@H](N=[N+]=[N-])[C@@H](CO)O2)c(=O)[nH]c1=O [ZIDOVUDINE]	>50	0.7	0.16	> 200	1.2	–
C[C@H](Cn1cnc2c(N)ncnc21)OCP(=O)(O)O [TENOFOVIR ANHYDROUS]	8.8	0.7	–	> 500	4.3	–
Nc1ncnc2c1ncn2[C@@H]1O[C@H](OCP(=O)(O)O)C=C1F [GS-9148]	4.3	0.8	–	> 1000	1.1	1.9
Nc1ncnc2c1ncn2[C@@H]1C=C[C@H](OCP(=O)(O)O)O1	13.7	7.1	5.9	> 1000	3.6	–
Nc1ncnc2c1ncn2[C@H]1C=C[C@@H](OCP(=O)(O)O)O1	2.9	0.9	2.1	> 1000	2.9	0.6
